Reference: patent US8129417B2, “Substituted octahydrocyclopenta[C]pyrrol-4-amines as calcium channel blockers” (Abbott Laboratories, priority 2008, dated 2012)

Assays:
human Cav2.2 = human Cav2.2 (Homo sapiens, UniProt Q00975); assay: Assessment of calcium channel activity using FLIPR (Ca2+ influx in IMR32 cells); format: cell-based; details: 60 minute pre-incubation with compound, 2 μM nifedipine, depolarized with 80 mM KCl
How it was run: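 IC50 came from sigmoidal non-linear regression of percent inhibition, relative to uninhibited activity, across compound concentrations. Calcium influx was measured by FLIPR in IMR32 cells plated at 1-1.2×10^5 cells/well and cultured 48 h at 37 °C.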

Sprague Dawley rats = assay: Capsaicin induced secondary mechanical hyperalgesia model; format: in vivo; details: po, 1 h, read-out: % inhibition @ 30 mg/kg p.o., 60 minutes before testing, secondary mechanical hyperalgesia 180 minutes after intraplantar capsaicin, rat
Procedure: (ii) In Vivo Data—Capsaicin Induced Secondary Mechanical Hyperalgesia Model:
Sprague Dawley rats were briefly restrained, and capsaicin was administered at 10 μg in 10 μL of vehicle by intraplantar injection into the center of the right hind paw. Secondary mechanical hyperalgesia (SMH) was measured at the heel away from the site of injection 180 minutes following capsaicin exposure. Compounds and gabapentin (positive control), were administered p.o. 60 minutes before testing (2 hours after capsaicin) or i.p. 30 minutes before testing (2.5 hours after capsaicin). SMH was measured using calibrated von Frey filaments (Stoelting, Woodale, Ill.). Following the 1 hour habituation in the testing room, rats were moved to individual plexiglass chambers that sit on top of a wire mesh to allow for access for stimulation of the plantar surface of the hind paws. Rats were allowed to acclimate to the new chambers for 15 minutes before the onset of testing. The paw withdrawal threshold was determined by increasing and decreasing stimulus intensity (force: g) and calculated using Dixon's up-down method (Chaplan, S. R.; Bach, F. W.; Pogrel, J. W.; Chung, J. M.; Yaksh, T. L.; Quantitative assessment of tactile allodynia in the rat paw. J. Neuroscience Methods 1994, 53(1), 55-63.). The filaments (maximum force of 15.0 g) were held in place for 8 seconds or until there was a withdrawal response from the mechanical stimulation.

human Cav2.2, sequence (Q00975 whole entry): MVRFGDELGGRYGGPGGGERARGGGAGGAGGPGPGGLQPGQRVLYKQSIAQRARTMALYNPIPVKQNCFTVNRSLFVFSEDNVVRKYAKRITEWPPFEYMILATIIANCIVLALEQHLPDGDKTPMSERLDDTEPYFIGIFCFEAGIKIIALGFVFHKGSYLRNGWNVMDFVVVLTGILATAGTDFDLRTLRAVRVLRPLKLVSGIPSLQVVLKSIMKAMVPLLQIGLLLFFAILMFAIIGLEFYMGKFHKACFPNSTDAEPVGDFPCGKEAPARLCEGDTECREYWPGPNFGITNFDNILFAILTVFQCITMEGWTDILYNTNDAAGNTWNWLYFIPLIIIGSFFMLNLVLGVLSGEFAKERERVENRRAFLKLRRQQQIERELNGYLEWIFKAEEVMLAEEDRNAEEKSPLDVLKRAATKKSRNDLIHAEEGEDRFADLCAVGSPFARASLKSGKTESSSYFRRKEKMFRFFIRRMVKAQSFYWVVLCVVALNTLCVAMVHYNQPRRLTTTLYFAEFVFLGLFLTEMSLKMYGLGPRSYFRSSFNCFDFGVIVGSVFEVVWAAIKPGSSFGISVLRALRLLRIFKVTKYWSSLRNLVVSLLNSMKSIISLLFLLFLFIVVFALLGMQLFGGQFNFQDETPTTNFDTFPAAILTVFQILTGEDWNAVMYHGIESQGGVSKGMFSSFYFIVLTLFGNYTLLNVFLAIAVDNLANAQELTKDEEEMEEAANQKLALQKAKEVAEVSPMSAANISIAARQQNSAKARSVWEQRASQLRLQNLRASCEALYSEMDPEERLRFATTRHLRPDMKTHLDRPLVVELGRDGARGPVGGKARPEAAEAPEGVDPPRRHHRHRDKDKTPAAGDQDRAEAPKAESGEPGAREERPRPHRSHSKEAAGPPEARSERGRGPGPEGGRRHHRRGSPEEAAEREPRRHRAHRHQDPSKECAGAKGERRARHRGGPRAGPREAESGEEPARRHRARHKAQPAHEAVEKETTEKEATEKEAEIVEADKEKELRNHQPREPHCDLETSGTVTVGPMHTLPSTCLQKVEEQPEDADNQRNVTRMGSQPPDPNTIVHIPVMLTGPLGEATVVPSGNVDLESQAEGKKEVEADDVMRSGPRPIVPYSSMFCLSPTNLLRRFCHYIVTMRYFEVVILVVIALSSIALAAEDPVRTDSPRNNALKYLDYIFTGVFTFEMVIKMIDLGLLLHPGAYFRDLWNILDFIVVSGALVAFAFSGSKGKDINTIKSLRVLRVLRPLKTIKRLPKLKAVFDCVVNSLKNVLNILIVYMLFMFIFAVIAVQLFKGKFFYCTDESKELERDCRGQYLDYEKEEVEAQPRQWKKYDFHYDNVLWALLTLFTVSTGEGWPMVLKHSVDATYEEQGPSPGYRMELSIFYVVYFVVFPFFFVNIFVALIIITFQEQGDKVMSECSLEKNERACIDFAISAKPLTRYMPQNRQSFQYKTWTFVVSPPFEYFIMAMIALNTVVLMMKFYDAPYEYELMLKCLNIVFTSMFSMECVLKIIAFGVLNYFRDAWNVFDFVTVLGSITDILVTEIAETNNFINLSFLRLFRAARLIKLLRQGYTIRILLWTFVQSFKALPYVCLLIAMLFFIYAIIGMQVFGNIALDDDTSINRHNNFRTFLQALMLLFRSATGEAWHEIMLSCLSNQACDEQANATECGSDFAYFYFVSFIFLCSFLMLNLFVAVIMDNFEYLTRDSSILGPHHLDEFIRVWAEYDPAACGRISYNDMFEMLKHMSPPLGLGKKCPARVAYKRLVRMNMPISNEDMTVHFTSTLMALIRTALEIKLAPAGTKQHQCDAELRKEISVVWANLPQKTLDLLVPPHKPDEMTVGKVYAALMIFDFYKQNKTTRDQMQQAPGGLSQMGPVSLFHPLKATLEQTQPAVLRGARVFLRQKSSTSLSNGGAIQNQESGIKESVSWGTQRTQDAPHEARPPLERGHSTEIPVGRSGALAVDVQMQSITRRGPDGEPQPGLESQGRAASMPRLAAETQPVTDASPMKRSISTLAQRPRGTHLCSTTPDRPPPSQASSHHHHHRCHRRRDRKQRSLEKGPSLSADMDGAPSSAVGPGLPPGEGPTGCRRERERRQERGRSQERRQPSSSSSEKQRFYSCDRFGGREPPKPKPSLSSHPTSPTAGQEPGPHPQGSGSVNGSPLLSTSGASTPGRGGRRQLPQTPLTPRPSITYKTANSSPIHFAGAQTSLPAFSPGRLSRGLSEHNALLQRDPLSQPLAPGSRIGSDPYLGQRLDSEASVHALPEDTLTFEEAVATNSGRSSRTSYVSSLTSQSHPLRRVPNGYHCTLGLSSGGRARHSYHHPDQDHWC
human Cav2.2, sequence (P54289 25-946 partner limits assumed): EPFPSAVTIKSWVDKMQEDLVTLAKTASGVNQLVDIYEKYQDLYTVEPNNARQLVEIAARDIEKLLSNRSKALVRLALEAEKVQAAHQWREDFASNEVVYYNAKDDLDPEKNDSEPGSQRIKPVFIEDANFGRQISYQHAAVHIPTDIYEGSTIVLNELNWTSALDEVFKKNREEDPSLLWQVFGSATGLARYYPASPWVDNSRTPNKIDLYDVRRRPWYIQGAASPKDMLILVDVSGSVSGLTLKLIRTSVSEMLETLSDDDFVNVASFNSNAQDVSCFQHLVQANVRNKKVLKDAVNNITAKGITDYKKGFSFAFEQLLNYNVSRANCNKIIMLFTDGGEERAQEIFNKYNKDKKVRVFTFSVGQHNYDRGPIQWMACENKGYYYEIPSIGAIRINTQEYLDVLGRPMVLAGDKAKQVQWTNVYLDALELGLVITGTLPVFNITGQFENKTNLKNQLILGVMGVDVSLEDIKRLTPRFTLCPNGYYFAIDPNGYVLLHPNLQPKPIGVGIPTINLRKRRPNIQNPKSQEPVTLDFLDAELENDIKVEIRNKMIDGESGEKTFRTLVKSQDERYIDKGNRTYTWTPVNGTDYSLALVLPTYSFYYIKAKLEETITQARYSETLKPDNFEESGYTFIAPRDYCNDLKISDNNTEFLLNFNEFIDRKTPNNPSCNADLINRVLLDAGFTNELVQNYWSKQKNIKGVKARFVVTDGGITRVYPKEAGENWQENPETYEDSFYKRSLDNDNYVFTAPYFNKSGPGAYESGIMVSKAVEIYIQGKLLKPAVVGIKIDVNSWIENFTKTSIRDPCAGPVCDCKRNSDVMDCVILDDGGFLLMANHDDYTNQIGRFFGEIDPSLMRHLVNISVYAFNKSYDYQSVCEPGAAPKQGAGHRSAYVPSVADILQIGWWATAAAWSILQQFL
human Cav2.2, sequence (P54289 947-1103 partner limits assumed): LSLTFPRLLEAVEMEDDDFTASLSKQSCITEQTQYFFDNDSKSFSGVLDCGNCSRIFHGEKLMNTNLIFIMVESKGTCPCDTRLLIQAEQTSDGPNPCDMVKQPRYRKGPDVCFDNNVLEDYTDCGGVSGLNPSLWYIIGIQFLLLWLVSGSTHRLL
human Cav2.2, sequence (P54284 whole entry partner): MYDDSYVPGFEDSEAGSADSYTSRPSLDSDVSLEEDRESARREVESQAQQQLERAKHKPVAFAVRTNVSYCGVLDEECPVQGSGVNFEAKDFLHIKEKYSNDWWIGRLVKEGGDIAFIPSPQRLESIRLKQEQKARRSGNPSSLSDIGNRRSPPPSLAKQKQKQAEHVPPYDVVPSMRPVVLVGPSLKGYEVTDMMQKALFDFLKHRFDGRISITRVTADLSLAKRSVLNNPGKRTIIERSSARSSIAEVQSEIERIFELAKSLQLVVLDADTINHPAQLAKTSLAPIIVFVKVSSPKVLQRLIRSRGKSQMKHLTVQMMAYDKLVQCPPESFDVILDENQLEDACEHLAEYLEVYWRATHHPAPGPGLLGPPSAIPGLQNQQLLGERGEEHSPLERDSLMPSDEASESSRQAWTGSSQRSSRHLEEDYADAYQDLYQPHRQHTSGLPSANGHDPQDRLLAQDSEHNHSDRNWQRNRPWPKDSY

Compound: O=C(N[C@@H]1CC[C@H]2CN(Cc3cccc(C(F)(F)F)c3)C[C@H]21)C(C1CCCCC1)C1CCCCC1 [Example 75, 2,2-dicyclohexyl-N-{(3aS,4R,6aR)-2-[3-(trifluoromethyl)benzyl]octahydrocyclopenta[c]pyrrol-4-yl}acetamide]
- IC50 (human Cav2.2): 500 nM
- inhibition in vivo at 30 mg/kg (Sprague Dawley rats): 85%

Compound: O=C(N[C@H]1CC[C@@H]2CN(Cc3cccc(C(F)(F)F)c3)C[C@@H]21)C(C1CCCCC1)C1CCCCC1 [Example 156, 2,2-dicyclohexyl-N-{(3aR,4S,6aS)-2-[3-(trifluoromethyl)benzyl]octahydrocyclopenta[c]pyrrol-4-yl}acetamide]
- IC50 (human Cav2.2): 800 nM
- inhibition in vivo at 30 mg/kg (Sprague Dawley rats): 67%

Compound: O=C(N[C@@H]1CC[C@@H]2CN(Cc3cccc(C(F)(F)F)c3)C[C@@H]21)C(C1CCCCC1)C1CCCCC1 [Example 157, 2,2-dicyclohexyl-N-{(3aR,4R,6aS)-2-[3-(trifluoromethyl)benzyl]octahydrocyclopenta[c]pyrrol-4-yl}acetamide]
- IC50 (human Cav2.2): 2100 nM
- inhibition in vivo at 30 mg/kg (Sprague Dawley rats): 57%

Compound: CN[C@@H](CC(C)C)C(=O)N[C@@H]1CC[C@H]2CN(Cc3ccccc3)C[C@H]21 [Example 165, N^1-[(3aS,4R,6aR)-2-benzyloctahydrocyclopenta[c]pyrrol-4-yl]-N^2-methyl-L-leucinamide]
- IC50 (human Cav2.2): 33300 nM
- inhibition in vivo at 30 mg/kg (Sprague Dawley rats): 92%

Compound: CC(C)C[C@@H](C(=O)N[C@@H]1CC[C@H]2CN(Cc3ccccc3)C[C@H]21)N1CCCS1(=O)=O [Example 220, (2S)—N-[(3aS,4R,6aR)-2-benzyloctahydrocyclopenta[c]pyrrol-4-yl]-2-(1,1-dioxidoisothiazolidin-2-yl)-4-methylpentanamide]
- IC50 (human Cav2.2): > 9000 nM
- inhibition in vivo at 30 mg/kg (Sprague Dawley rats): 76%

Compound: CCC[C@H](NC(=O)OC(C)C)C(=O)N[C@H]1CC[C@@H]2CN(Cc3ccc(C(F)(F)F)cc3)C[C@@H]21 [Example 280, isopropyl(S)-1-oxo-1-((3aR,4S,6aS)-2-(4-(trifluoromethyl)benzyl)octahydrocyclopenta[c]pyrrol-4-ylamino)pentan-2-ylcarbamate]
- IC50 (human Cav2.2): 5040 nM
- inhibition in vivo at 30 mg/kg (Sprague Dawley rats): 38%

Compound: CN[C@@H](CC(C)(C)C)C(=O)N[C@H]1CC[C@@H]2CN(S(=O)(=O)c3ccc(C(F)(F)F)cc3)C[C@@H]21 [Example 415, N^2,4-dimethyl-N^1-((3aR,4S,6aS)-2-{[4-(trifluoromethyl)phenyl]sulfonyl}octahydrocyclopenta[c]pyrrol-4-yl)-L-leucinamide]
- IC50 (human Cav2.2): 2970 nM
- inhibition in vivo at 30 mg/kg (Sprague Dawley rats): 52%

Compound: CC(C)(C)C[C@H](NCC1CC1)C(=O)N[C@H]1CC[C@@H]2CN(c3ccc(C(F)(F)F)cn3)C[C@@H]21 [Example 478, N^2-(cyclopropylmethyl)-4-methyl-N^1-{(3aR,4S,6aS)-2-[5-(trifluoromethyl)pyridin-2-yl]octahydrocyclopenta[c]pyrrol-4-yl}-L-leucinamide]
- IC50 (human Cav2.2): 750 nM
- inhibition in vivo at 30 mg/kg (Sprague Dawley rats): 57%

Compound: CC(C)N[C@@H](CC(C)(C)C)C(=O)N[C@H]1CC[C@@H]2CN(C(=O)[C@H](CC(C)(C)C)NC(C)C)C[C@@H]21 [Example 488, N^2-isopropyl-N^1-[(3aR,4S,6aS)-2-(N-isopropyl-4-methyl-L-leucyl)octahydrocyclopenta[c]pyrrol-4-yl]-4-methyl-L-leucinamide]
- IC50 (human Cav2.2): 7430 nM
- inhibition in vivo at 30 mg/kg (Sprague Dawley rats): 55%

Compound: CC(C)N[C@@H](CC(C)(C)C)C(=O)N[C@H]1CC[C@@H]2CN(C(=O)[C@H](Cc3ccccc3)NC(C)C)C[C@@H]21 [Example 489, N^2-isopropyl-N^1-[(3aR,4S,6aS)-2-(N-isopropyl-L-phenylalanyl)octahydrocyclopenta[c]pyrrol-4-yl]-4-methyl-L-leucinamide]
- IC50 (human Cav2.2): 9760 nM
- inhibition in vivo at 30 mg/kg (Sprague Dawley rats): 47%

Compound: O=C(N[C@H]1CC[C@@H]2CN(c3cccc(C(F)(F)F)n3)C[C@@H]21)c1ccc(F)cc1 [Example 560, 4-fluoro-N-{(3aR,4S,6aS)-2-[6-(trifluoromethyl)pyridin-2-yl]octahydrocyclopenta[c]pyrrol-4-yl}benzamide]
- IC50 (human Cav2.2): 1450 nM
- inhibition in vivo at 30 mg/kg (Sprague Dawley rats): 42%
